Columns and labels:
[1] = test system: Rodents (NPY, ob/ob, agouti, fasted feeding models); settings: injected intracerebroventricularly (ICV); cited from earlier work
[2] = test system: male volunteers / patients with psychogenic erectile dysfunction; settings: cited from earlier work
[3] = molecular target: T1, cloned human MC4R receptors (Homo sapiens, UniProt P32245); experiment: Melanocortin MC4R membrane binding assay ([125I]NDP-α-MSH competition); settings: [125I]NDP-α-MSH 0.1 nM, membranes of Hi5 insect cells or HEK-293 cells, 90 minutes at 37° C.
T1 construct: expressed in transfected cells; host or cells: Hi5 insect cells or HEK-293 cells (baculovirus/human MC4R receptor construct); membranes
T1 sequence (P32245 whole entry): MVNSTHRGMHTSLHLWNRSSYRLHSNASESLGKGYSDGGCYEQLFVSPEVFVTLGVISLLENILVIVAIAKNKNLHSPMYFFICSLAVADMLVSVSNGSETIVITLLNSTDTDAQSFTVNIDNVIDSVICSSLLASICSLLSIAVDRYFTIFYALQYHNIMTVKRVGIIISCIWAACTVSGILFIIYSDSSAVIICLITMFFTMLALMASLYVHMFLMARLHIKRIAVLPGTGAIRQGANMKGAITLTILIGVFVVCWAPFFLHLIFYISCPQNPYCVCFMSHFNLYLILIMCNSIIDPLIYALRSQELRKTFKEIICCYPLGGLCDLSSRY
Experimental: Melanocortin MC4R Binding Assay. […] A membrane binding assay was used to identify competitive ligands of [^125I]NDP-α-MSH binding to cloned human MC4R receptors expressed in Hi5 insect cells or HEK-293 cells transfected by a baculovirus/human MC4R receptor construct. The membrane binding buffer was composed of 25 mM HEPES, pH 7.4, 140 mM NaCl, 1.2 mM MgCl2, 2.5 mM CaCl2, and 0.1% BSA Membrane protein (0.5 μg) and [^125I]-NDP-α-MSH (to a final concentration of 0.1 nM) were added. Competing ligands or a buffer blank were added and incubated for 90 minutes at 37° C. After filtration, the cell membranes were evaluated in a Wallac Microbeta Trilux Scintillation and Luminescence Counter (Model 1450). Dose-response cureves were fitted by […] analyses and IC50 values are calculated using ExcelFit.

[4] = intramuscular, 0.005–0.03 mg/kg, three normal male volunteers

Row | Compound | IC50 [3] [nM] | food intake [1] | further results
1 | SHU-9119 |  | reverses this effect and can induce hyperphagia | 
2 | melanotan-II [MT-II] |  | reduced food intake | penile erections [2, 4]: caused intermittent non-painful penile erections; period of erections after dosing [2, 4]: 1 to 5 h; erections ([2]; subcutaneous, 0.025 mg/kg and 0.1 mg/kg, 10 patients with psychogenic erectile dysfunction): caused transient erections; responders ([2]; subcutaneous, 0.025 mg/kg and 0.1 mg/kg, of 10 patients with psychogenic erectile dysfunction): 8; onset of erections ([2]; subcutaneous, 0.025 mg/kg and 0.1 mg/kg, patients with psychogenic erectile dysfunction): 50 to 180 min
3 | CC(C)CC(=O)N(C(C)C)[C@H]1CCN(C(=O)[C@@H](Cc2ccc(Cl)cc2)NC(=O)[C@@H]2CNCCN2)C1 [Example 42] | 250 to 1000 |  | 

Further lines, with some results ahead:

Row | IC50 [3] [nM] | Compound | food intake [1] | further results
4 | 1000 to 10000 | CC(=O)N(C1CCCCC1)[C@H]1CCN(C(=O)[C@@H](Cc2ccc(Cl)cc2)NC(=O)CCN(C)C)C1 [Example 58] |  | 
5 | 1000 to 10000 | CC(C)CC(=O)N(C1CCCC1)[C@H]1CCN(C(=O)[C@@H](Cc2ccc(Cl)cc2)NC(=O)CCN(C)C)C1 [Example 61] |  | 
6 | < 250 | O=C(N[C@H](Cc1ccc(Cl)cc1)C(=O)N1CC[C@H](N(C(=O)c2ccno2)C2CCCCC2)C1)[C@H]1Cc2ccccc2CN1 [Example 18] |  | 

— US7049323B2, “Amidoheterocycles as modulators of the melanocortin-4 receptor” (Bristol-Myers Squibb Company, priority 2003, dated 2006)
